Target: T1, EPHA6 (Homo sapiens, UniProt Q9UF33)
T1 construct: purchased Thermo Fisher Scientific (Life Technologies) SelectScreen
Test: SelectScreen LanthaScreen
Type: binding
Settings: read-out: % displacement
Summary of the method: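 SelectScreen broad panel; activity (Z'LYTE, Adapta) plus binding formats. ATP: Km app for CSF1R Z'LYTE; 10 for CAMK1 Adapta. Readout = % per kinase.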

T1 sequence (Q9UF33 23-1036): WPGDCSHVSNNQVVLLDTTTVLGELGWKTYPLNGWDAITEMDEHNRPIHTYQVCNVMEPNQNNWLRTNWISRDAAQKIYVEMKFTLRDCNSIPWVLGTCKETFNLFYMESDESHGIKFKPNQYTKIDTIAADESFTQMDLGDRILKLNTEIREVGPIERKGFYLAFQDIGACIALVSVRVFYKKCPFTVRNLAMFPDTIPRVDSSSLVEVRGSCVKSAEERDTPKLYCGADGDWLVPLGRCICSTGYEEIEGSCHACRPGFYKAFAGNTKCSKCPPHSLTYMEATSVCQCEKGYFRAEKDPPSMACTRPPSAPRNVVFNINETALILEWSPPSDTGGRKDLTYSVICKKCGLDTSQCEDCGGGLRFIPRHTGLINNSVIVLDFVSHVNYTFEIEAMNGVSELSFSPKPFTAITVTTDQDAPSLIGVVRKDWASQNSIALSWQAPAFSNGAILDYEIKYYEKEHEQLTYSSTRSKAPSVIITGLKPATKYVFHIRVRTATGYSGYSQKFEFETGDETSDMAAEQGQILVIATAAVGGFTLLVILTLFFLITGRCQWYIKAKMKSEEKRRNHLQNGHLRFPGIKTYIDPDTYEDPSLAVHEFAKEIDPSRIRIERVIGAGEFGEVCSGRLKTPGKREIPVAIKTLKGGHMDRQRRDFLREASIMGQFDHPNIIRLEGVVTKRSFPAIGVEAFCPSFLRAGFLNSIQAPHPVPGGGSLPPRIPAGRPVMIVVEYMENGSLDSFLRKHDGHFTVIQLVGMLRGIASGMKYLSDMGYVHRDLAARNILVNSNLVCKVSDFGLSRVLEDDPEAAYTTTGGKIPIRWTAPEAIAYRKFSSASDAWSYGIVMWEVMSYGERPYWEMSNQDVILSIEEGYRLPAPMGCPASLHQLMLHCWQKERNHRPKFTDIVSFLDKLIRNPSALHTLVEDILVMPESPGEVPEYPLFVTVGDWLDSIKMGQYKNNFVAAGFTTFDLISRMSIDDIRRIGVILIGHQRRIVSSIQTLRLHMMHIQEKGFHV

Structure (SMILES): CN(C(=O)CN1CCOCC1)c1ccc2sc3c(-c4cccc5c(=O)cc(N6CC7CCC(C6)O7)oc45)cccc3c2c1 [NU5455]
- inhibition at 1 µM: 1.6%

— publication PMC6934184, “Selective DNA-PKcs inhibition extends the therapeutic index of localized radiotherapy and chemotherapy” (The Journal of Clinical Investigation, 2019)
